For 24 compounds, Ki results are on record in ChEMBL document CHEMBL1926669, “Quantitative structure-activity relationships of 1,3,4-thiadiazol-2(3H)-ones and 1,3,4-oxadiazol-2(3H)-ones as human protoporphyrinogen oxidase inhibitors” (Bioorg Med Chem, 2012).

The structures appear in SMILES notation.

Assay [1] concerns the target T1, Protoporphyrinogen oxidase (Homo sapiens, UniProt P50336).
T1 sequence (P50336 whole entry): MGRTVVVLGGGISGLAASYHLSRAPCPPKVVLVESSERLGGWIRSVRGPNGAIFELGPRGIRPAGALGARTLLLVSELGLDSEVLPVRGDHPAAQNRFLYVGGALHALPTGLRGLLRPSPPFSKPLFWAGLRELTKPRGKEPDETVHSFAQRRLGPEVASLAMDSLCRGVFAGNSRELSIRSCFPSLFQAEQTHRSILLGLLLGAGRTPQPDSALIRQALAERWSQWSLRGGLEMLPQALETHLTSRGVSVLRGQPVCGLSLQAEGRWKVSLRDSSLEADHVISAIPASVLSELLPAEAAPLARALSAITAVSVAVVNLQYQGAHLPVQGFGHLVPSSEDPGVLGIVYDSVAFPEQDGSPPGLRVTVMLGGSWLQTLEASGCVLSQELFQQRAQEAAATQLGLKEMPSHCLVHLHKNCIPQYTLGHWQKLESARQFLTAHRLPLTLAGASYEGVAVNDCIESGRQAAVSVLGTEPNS
Description: Inhibition of human PPO by capillary electrophoresis method.

Assay [2] deals with T2, Protoporphyrinogen oxidase, mitochondrial (Nicotiana tabacum, UniProt O24164).
T2 sequence (O24164 whole entry): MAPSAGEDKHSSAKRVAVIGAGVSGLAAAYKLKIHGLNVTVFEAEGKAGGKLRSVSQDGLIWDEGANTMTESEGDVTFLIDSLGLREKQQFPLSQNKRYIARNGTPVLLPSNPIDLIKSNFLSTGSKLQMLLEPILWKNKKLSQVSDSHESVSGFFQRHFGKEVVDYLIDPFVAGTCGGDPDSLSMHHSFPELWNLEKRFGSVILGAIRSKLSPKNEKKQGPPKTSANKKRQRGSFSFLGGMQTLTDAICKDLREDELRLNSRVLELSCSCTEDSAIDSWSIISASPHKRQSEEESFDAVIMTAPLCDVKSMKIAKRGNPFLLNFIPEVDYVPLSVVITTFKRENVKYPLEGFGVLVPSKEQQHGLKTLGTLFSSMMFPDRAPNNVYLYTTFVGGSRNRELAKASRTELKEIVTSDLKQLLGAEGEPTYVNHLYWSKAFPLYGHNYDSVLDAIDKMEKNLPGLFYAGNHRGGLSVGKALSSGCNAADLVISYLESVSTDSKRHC
The assay is described as follows: Inhibition of Nicotiana tobacum PPO.

For assay [3], the target named is T1, Protoporphyrinogen oxidase. The assay is described as follows: Inhibition of human PPO expressed in Escherichia coli BL21(DE3) by continuous fluorometric method.

With `C#CCSc1nc2cc(-n3nc(C(C)(C)C)sc3=O)c(Cl)cc2s1`, affinity in assay [1] was put at a Ki of 21.4 µM. Still for that read-out and setting: as for `CCOC(=O)C(C)(C)Sc1nc2cc(-n3nc(C(C)(C)C)sc3=O)c(Br)cc2s1`, the figure is 43.5 µM.

For the compound `CCOC(=O)Sc1nc2cc(-n3nc(C(C)(C)C)oc3=O)c(F)cc2s1`, in assay [1], the inhibition constant (Ki) worked out at 0.72 µM. Take `CCOC(=O)CCCSc1nc2cc(-n3nc(C(C)(C)C)sc3=O)c(Br)cc2s1`: in assay [1], the inhibitory constant (Ki) came to 245 µM. The same measure, in the same setting: as for `C#CCSc1nc2cc(-n3nc(C(C)(C)C)sc3=O)c(Br)cc2s1`, the figure is 20.7 µM. On the same count and under the same terms, for `CC(C)OC(=O)CSc1nc2cc(-n3nc(C(C)(C)C)sc3=O)c(F)cc2s1` the value was 1.26 µM; for `COC(=O)CSc1nc2cc(-n3nc(C(C)(C)C)sc3=O)c(F)cc2s1`, 3.05 µM. The compound `CC(C)Oc1cc(-n2nc(C(C)(C)C)oc2=O)c(Cl)cc1Cl` [OXADIAZON] came in with a Ki in assay [1] of 2.93 µM. As for `CCOC(=O)CCSc1nc2cc(-n3nc(C(C)(C)C)sc3=O)c(Br)cc2s1`, the affinity in assay [1] corresponds to a Ki of 27.5 µM. Still for that read-out and setting: as for `CCOC(=O)CSc1nc2cc(-n3nc(C(C)(C)C)oc3=O)c(Cl)cc2s1`, the figure is 1.07 µM; as for `CCOC(=O)CSc1nc2cc(-n3nc(C(C)(C)C)sc3=O)c(F)cc2s1`, 0.34 µM; as for `CCOC(=O)C(C)Sc1nc2cc(-n3nc(C(C)(C)C)sc3=O)c(Cl)cc2s1` (stereo not given), 12 µM. The same measure, in the same setting: as for `CCOC(=O)C(C)(C)Sc1nc2cc(-n3nc(C(C)(C)C)oc3=O)c(Br)cc2s1`, the figure is 1.58 µM; as for `CCOC(=O)C(C)Sc1nc2cc(-n3nc(C(C)(C)C)sc3=O)c(Br)cc2s1` (stereo not given), 173 µM.

With `CCOC(=O)CCCSc1nc2cc(-n3nc(C(C)(C)C)sc3=O)c(Cl)cc2s1`, the Ki in assay [1] stood at 17.7 µM. This Ki is about 9.8-fold lower than that of the compound before. Turning to `O=C(O)c1cc(Oc2ccc(C(F)(F)F)cc2Cl)ccc1[N+](=O)[O-]` [ACIFLUORFEN], the Ki is 0.07 µM in assay [2] and 1.71 µM in assay [3]. As for `CCOC(=O)Sc1nc2cc(-n3nc(C(C)(C)C)sc3=O)c(Cl)cc2s1`, affinity in assay [1] was put at a Ki of 0.2 µM. The same measure, in the same setting: as for `CCOC(=O)Sc1nc2cc(-n3nc(C(C)(C)C)sc3=O)c(F)cc2s1`, the figure is 0.04 µM; as for `C#CCSc1nc2cc(-n3nc(C(C)(C)C)oc3=O)c(F)cc2s1`, 1.92 µM. `CCOC(=O)CCCSc1nc2cc(-n3nc(C(C)(C)C)oc3=O)c(F)cc2s1` showed an inhibition constant Ki in assay [1] of 0.36 µM. Compound `CCOC(=O)C(C)(C)Sc1nc2cc(-n3nc(C(C)(C)C)sc3=O)c(F)cc2s1` came in with an inhibition constant Ki in assay [1] of 3.46 µM.

`CCOC(=O)CSc1nc2cc(-n3nc(C(C)(C)C)sc3=O)c(Br)cc2s1` showed a Ki in assay [1] of 15.6 µM. Compared with the last compound, the Ki is about 4.5-fold higher. Same read-out and setting: as for `CCOC(=O)C(C)Sc1nc2cc(-n3nc(C(C)(C)C)sc3=O)c(F)cc2s1` (stereo not given), the figure is 5.89 µM. For `CCOC(=O)C(C)(C)Sc1nc2cc(-n3nc(C(C)(C)C)sc3=O)c(Cl)cc2s1`, the Ki in assay [1] was determined as 34.4 µM.

One may read the Ki as a dissociation constant, usually derived from enzyme kinetics or from competition with a known ligand. A low value points to a stronger hold on the target.
